Activity calls are given as the source filed them. Some results are limits rather than exact numbers.

For assay [1], the system named is Streptococcus sp. 'group A'. As to the kind of experiment: Streptococcus pyogenes SK(-)GAS viability under kanamycin – luminescence, BacTiterGlo, confirmation, counter-screen for streptokinase expression inhibitor project, dose response (AID 1900). It is filed as functional, organism-based.
Another assay has as its target T1, Streptokinase A (Streptococcus pyogenes serotype M1, UniProt P10520).
T1 sequence (P10520 whole entry): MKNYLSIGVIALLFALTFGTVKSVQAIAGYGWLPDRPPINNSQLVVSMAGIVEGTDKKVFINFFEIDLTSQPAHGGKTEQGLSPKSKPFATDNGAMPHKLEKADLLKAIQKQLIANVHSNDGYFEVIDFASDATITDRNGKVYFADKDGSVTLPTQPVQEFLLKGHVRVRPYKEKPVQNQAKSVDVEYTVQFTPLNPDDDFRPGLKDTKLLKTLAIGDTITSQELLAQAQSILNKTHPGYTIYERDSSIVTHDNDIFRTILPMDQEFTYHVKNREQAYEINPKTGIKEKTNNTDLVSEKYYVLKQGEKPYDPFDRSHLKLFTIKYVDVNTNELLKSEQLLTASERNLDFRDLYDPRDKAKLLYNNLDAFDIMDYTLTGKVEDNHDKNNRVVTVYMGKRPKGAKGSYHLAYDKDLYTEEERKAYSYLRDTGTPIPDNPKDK
As to the kind of experiment: viability-normalized secreted streptokinase activity reduction – plasminogen activation absorbance, OD405, dose response (AID 1914).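 Note: secreted streptokinase activity via plasminogen activation per viability signal from cell pellet.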 Format: functional, Streptococcus pyogenes M1 GAS.

Another assay has as its system Streptococcus. Briefly: GAS UMAA2166 growth inhibition – luminescence, BacTiterGlo, counter-screen for streptokinase expression inhibitor project, dose response (AID 1915).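 Note: potency for reduction of bacterial viability or growth.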 Format: functional, organism-based.
The target of a further assay is T2, Cytochrome P450 1A2 (Homo sapiens, UniProt P05177).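 Note: PubChem cytochrome P450 panel assay, CYP1A2 panel member.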
T2 sequence (P05177 whole entry): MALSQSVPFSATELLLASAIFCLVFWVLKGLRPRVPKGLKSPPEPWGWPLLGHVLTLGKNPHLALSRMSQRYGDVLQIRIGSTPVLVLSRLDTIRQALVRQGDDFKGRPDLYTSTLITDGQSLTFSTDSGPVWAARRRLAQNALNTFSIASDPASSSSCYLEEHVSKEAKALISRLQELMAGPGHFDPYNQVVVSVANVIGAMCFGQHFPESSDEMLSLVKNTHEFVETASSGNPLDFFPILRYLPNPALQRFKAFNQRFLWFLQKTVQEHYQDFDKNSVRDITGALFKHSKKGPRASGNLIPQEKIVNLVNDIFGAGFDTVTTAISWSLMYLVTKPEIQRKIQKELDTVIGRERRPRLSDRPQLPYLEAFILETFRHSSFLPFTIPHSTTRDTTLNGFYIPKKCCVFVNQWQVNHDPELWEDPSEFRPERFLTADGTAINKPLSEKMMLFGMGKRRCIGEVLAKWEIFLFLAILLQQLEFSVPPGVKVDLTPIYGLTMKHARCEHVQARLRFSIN

Assay [2] in a line: viability of uninfected HEp-2 cells – cell-based, HTS, cytotoxicity control for RSV inhibitor project, dose response (AID 2410). It is filed as functional. The settings on record: human respiratory syncytial virus.
Assay [3] addresses T3, Replicative DNA helicase DnaB (Mycobacterium tuberculosis, UniProt P9WMR3).
T3 sequence (P9WMR3 whole entry): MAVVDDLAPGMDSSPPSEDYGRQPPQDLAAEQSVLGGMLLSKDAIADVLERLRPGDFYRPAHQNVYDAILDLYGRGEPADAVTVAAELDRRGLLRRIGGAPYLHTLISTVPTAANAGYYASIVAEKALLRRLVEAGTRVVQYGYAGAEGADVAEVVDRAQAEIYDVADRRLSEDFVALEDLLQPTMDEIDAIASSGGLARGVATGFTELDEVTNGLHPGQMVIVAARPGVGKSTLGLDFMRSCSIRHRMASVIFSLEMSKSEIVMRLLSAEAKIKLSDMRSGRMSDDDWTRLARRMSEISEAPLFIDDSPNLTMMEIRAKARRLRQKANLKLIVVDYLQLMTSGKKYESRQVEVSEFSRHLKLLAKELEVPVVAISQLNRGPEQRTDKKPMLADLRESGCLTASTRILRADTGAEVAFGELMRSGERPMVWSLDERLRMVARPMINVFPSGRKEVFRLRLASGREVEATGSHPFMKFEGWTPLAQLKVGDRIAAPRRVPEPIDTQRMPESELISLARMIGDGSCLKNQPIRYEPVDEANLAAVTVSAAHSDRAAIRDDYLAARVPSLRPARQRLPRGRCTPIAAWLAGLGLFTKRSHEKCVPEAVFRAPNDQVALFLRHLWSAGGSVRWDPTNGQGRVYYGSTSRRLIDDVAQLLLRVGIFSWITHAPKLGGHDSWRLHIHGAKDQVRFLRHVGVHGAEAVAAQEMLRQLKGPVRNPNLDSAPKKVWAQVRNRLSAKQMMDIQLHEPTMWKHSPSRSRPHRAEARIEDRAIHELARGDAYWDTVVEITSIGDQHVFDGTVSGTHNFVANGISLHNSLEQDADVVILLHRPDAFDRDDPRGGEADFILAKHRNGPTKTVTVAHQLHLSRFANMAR
Briefly: DnaB intein splicing inhibitors, dose response, biochemical, cell-free fluorescence (AID 449749). Format: functional.

A further assay concerns the target T4, Protein RecA (Mycobacterium tuberculosis, UniProt P9WHJ3).
T4 sequence (P9WHJ3 whole entry): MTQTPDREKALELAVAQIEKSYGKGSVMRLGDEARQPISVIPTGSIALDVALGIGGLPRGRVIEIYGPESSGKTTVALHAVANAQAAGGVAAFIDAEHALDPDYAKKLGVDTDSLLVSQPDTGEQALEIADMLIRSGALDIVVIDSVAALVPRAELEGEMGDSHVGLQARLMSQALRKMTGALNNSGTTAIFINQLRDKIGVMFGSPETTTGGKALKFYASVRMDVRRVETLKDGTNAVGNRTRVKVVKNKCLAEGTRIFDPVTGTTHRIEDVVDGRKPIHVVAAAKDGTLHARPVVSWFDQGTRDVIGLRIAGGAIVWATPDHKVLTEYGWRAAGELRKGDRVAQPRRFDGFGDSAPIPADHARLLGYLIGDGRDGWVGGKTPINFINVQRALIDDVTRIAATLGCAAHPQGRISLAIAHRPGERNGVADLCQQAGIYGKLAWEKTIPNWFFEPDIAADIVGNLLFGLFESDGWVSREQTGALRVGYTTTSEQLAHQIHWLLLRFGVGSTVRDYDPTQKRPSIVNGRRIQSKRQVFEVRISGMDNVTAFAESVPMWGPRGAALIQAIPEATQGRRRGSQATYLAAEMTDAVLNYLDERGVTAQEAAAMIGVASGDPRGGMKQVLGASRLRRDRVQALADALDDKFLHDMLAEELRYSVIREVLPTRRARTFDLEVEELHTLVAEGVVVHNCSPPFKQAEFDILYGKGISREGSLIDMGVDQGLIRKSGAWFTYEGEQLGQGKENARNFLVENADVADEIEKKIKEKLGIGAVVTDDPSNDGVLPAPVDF
Briefly: Fluorescence Cell-Free Homogeneous Dose Retest to Identify Inhibitors of RecA-Intein Splicing Activity. [Related pubchem assays (depositor defined):AID2097, AID2223, AID489010, AID492950]. Format: functional.

The nature of assay [4]: Trypanosoma cruzi growth suppression in host cells – NIH3T3 host cells, beta-gal luminescence, confirmation (AID 2044).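 Note: intracellular parasites grown in NIH/3T3 mouse fibroblasts as host cells; luminescent beta-galactosidase reporter signal from transgenic T. cruzi replicating inside host cells; inhibitors lower the luminescence signal.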 Format: functional, cell-based.
The nature of assay [5]: NIH3T3 cell viability loss – ATP luminescence, mouse fibroblasts, counter-screen, dose response (AID 2010).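 Note: cells exposed to compound for about 90 hours before reading.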 Format: functional, cell-based.

In general, EC50 refers to the concentration giving half of the maximal effect. On to `Cc1ccc(Oc2ccc3c(c2)C(=O)N(c2cccc4cccnc24)C3=O)cc1`, for which the results for the concentration giving a half-maximal response (EC50) (in assay [1]; on Streptokinase A; in the assay with Streptococcus) were 25.6 µM (active), 25.3 µM (active) and > 150 µM (not active), respectively.
Usually AC50 stands for the midpoint of the concentration-response curve, whichever way the signal moves. Take `COc1ccc(-n2c(=O)c(-c3cn(C)c4ccccc34)nc3cnc(N4CCOCC4)nc32)cc1`: the half-maximal activity concentration (AC50) at Cytochrome P450 1A2 is 31.6 µM (inconclusive).
What is called CC50 is the concentration that lowers cell viability or growth by half. As to `CC1(C)Cc2ccccc2-c2nnc(S)n21`, the 50% cytotoxic concentration (CC50) in assay [2] is 31.5 µM (active).
`C[C@@H](C(=O)NCc1ccccn1)[C@@H]1C[C@@]1(C)[C@@H](NC(=O)OCc1ccccc1)c1ccccc1`: the AC50 on Cytochrome P450 1A2 is 20 µM (inconclusive).
Same read-out and setting: to `O=S(=O)(c1ccccc1)N1CCC[C@@]2(CCN(c3cccc(-c4ccccc4)c3)C2)C1` belongs 15.8 µM (inconclusive).
`Clc1ccc(N2CCCCCC2)nn1`: the AC50 on Cytochrome P450 1A2 is 15.8 µM (inconclusive).
Turning to `N#C/C(=C/c1ccncc1)c1nc2ccccc2s1`, the AC50 in assay [3] was > 120 µM (inactive). In addition, on Protein RecA, the EC50 is 1.67 µM (active).
In the case of `COc1ccccc1NC(=O)CSc1nc2nnc(C)c-2c(N)n1-c1ccccc1Cl`, in [2], the CC50 is 16.8 µM (active).
On to `Cc1sc(NC(=O)CSC2=NCCS2)nc1-c1ccccc1`, for which, in [3], the AC50 was 12.7 µM (active). The EC50 on Protein RecA was 4.25 µM (active).
For the compound `CCOC(=O)c1[nH]c2ccc(OC)cc2c1C(SCC(=O)O)c1ccc(C(F)(F)F)cc1` (stereo not given), the CC50 in assay [2] was 21.1 µM (active).
Take `N#CC1=C(N)C(C#N)(C#N)[C@H](c2c(F)cccc2F)[C@H]2CC3(CC=C12)OCCO3`: the AC50 in [3] is > 380 µM (inactive). Further, the EC50 at Protein RecA was 22.2 µM (active).
On to `Cc1noc(C)c1-c1cncnc1Nc1ccccc1`, for which, at Cytochrome P450 1A2, the AC50 is 25.1 µM (inconclusive).
Take `CC1CCCCN1c1nc(-c2ccncc2)nc2ccccc12` (stereo not given): in assay [2], the half-maximal cytotoxic concentration (CC50) is 44.4 µM (active). For the same compound, the concentration giving a half-maximal response (EC50) was 0.576 µM (active) in assay [4] and > 30 µM (not active) in assay [5].
As for `N#Cc1cn(CCOc2ccc(F)cc2)c2ccccc12`, the CC50 in assay [2] is 14.1 µM (active).
In the case of `COC(=O)C1=NN(C(C)=O)C2(CC(=O)N(c3cc(C)cc(C)c3)C2=O)C1` (stereo not given), in assay [3], the AC50 is > 380 µM (inactive). The EC50 at Protein RecA was > 380 µM (inactive).
For the compound `Cc1ccc(N2CCN(C(=O)C3CCCN(c4ncnc5c4nc4n5CCCCC4)C3)CC2)c(C)c1` (stereo not given), the 50% cytotoxic concentration (CC50) in assay [2] is 9.35 µM (active).
On to `N#CC1=C(N)Oc2[nH]nc(-c3cccs3)c2C1c1ccco1` (stereo not given), for which the AC50 in [3] was 8.22 µM (active). At Protein RecA, the EC50 is 7.2 µM (active).
For `Cc1nc2ccccc2c2c1C(=O)N(Cc1cccnc1)C2=O` the same measures were 32.8 µM (active) and 1.02 µM (active).
Consider `CCCOc1ccc(C(=O)NNC(=S)NC(=O)c2cc(-c3ccccc3)nc3ccccc23)cc1`, for which the concentration at half-maximal activity (AC50) at Cytochrome P450 1A2 was 17.8 µM (inconclusive).
For `O=C(Nc1ccccc1)c1ccc2c(c1)CCN2S(=O)(=O)c1ccccc1`, the CC50 in assay [2] is 16 µM (active).
Take `CS(=O)(=O)N1CCC(Oc2ccccc2C(=O)N2CCCCC2CO)CC1` (stereo not given): the AC50 in assay [3] is > 380 µM (inactive). For the same compound, the EC50 at Protein RecA is > 380 µM (inactive).
Regarding `Cc1c(C(=O)N2CCc3ccccc3C2)sc2nc(-c3ccccc3)cn12`, in assay [2], the cytotoxic concentration (CC50) is 30.3 µM (active).
On the same count and under the same terms, the figure for `COc1ccc(-c2ccc(-c3noc(-c4ccccc4)n3)c(OC)n2)cc1` is 36.4 µM (active); for `CCn1c2ccccc2c2cc(NC(=O)c3ccc(Br)o3)ccc21` it is 27.8 µM (active).
On to `COc1ccc(NC(=O)c2cccc(N3C(=O)C4C5C=CC(C5)C4C3=O)c2)cc1Cl` (stereo not given), for which, in [3], the AC50 was > 380 µM (inactive). For the same compound, the EC50 at Protein RecA was 18.5 µM (active).
In the case of `CC(C)(C)c1ccc(C(=O)Cn2cnnc2C#N)cc1`, the concentration at half-maximal activity (AC50) in [3] is 48.9 µM (active). Further, at Protein RecA, the EC50 was 20 µM (active).
Take `COc1ccc(C2C(C#N)=C(N)Oc3c2c(C)nn3-c2ccccc2)cc1Cn1nc(C)c([N+](=O)[O-])c1C` (stereo not given): the half-maximal activity concentration (AC50) in assay [3] was 2.95 µM (active). In addition, the EC50 on Protein RecA is 10.5 µM (active).
As to `COCc1n[nH]c2c1C(c1cccc(OC)c1)C(C#N)=C(N)O2` (stereo not given), the AC50 in [3] is 40 µM (active). Moreover, on Protein RecA, the EC50 is 27 µM (active).
On to `COc1ccccc1-c1cc(=O)c2c(O)ccc([N+](=O)[O-])c2o1`, for which the values for the EC50 (in [1]; on Streptokinase A; in the assay on Streptococcus) were 1.4 µM (active), > 150 µM (not active) and 10.4 µM (active), respectively.
Turning to `O=C(N/N=C/c1nn(-c2ccccc2)cc1-c1ccc(Cl)cc1)c1ccncc1`, the CC50 in [2] is 10.1 µM (active).
On the same count and under the same terms, to `CCOC(=O)c1cc2c(=O)n3ccccc3nc2n(CCOC)/c1=N/C(=O)c1c(-c2c(F)cccc2Cl)noc1C` belongs 5.3 µM (active); to `COc1cc(/C=N/NC(=O)c2nnn(-c3nonc3N)c2C(C)C)ccc1OCc1ccccc1`, 14 µM (active).
For `C/C(CC(=O)Nc1cc(C)ccn1)=N\NC(=O)c1ccc(C)cc1`, the AC50 in assay [3] is 24.4 µM (active). The EC50 at Protein RecA is 8.13 µM (active).
For `COc1ccc(S(=O)(=O)N/N=C(/C)c2ccncc2)cc1`, the EC50 (in assay [1]; at Streptokinase A; in the assay with Streptococcus) was > 150 µM (not active) in each case.
With `Cc1c(-c2ccccc2)oc2c(C(=O)OCCN3CCCCC3)cccc2c1=O` [FLAVOXATE], the AC50 on Cytochrome P450 1A2 was 6.31 µM (inconclusive).

For the origin of these results see ChEMBL document CHEMBL1201862, “PubChem BioAssay data set” (2004).
